The structures appear in SMILES notation. Bounds are passed on as bounds.

The target of the test is T1, histamine H3 receptor (Homo sapiens, UniProt Q9Y5N1).
T1 construct: expressed in transfected cells; host or cells: CHO K1 cells (pSwitch/pGene GeneSwitch system, mifepristone-induced), clone 3H3; membranes
T1 sequence (Q9Y5N1 whole entry): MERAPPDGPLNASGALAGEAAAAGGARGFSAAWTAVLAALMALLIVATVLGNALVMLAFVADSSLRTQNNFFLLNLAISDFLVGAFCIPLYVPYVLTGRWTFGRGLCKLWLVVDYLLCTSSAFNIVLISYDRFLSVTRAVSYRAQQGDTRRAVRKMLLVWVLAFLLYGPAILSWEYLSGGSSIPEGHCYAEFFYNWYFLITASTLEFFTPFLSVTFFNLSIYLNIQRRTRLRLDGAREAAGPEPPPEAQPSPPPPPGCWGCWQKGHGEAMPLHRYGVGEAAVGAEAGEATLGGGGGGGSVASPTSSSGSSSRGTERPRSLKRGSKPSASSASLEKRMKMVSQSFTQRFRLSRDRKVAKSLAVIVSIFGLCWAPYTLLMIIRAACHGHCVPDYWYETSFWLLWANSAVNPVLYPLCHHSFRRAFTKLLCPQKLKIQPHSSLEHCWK
Kind of test: Histamine H3 functional antagonist assay ([35S]-GTPγS SPA on membranes of H3 cells). As to conditions: membrane prepared from cultured H3 cells (CHO K1, human H3); histamine at EC80; averages of a number of experiments; read-out: functional pKi (fpKi), H3 functional antagonist assay (converted). Type of test: biochemical. An excerpt: A membrane preparation containing histamine H3 receptors may be prepared in accordance with the following procedures:
(i) Generation of Histamine H3 Cell Line
DNA encoding the human histamine H3 gene (Huvar, A. et al. (1999) Mol. Pharmacol. 55(6), 1101-1107) was cloned into a holding vector, pcDNA3.1 TOPO (InVitrogen) and its cDNA was isolated from this vector by restriction digestion of plasmid DNA with the enzymes BamH1 and Not-1 and ligated into the inducible expression vector pGene (InVitrogen) digested with the same enzymes. The GeneSwitch™ system (a system where in transgene expression is switched off in the absence of an inducer and switched on in the presence of an inducer) was performed as described in U.S. Pat. Nos. 5,364,791; 5,874,534; and 5,935,934. Ligated DNA was transformed into competent DH5α E. coli host bacterial cells and plated onto Luria Broth (LB) agar containing Zeocin™ (an antibiotic which allows the selection of cells expressing the sh ble gene which is present on pGene and pSwitch) at 50 μg ml^−1. Colonies containing the re-ligated plasmid were identified by restriction analysis. DNA for transfection into mammalian cells was prepared from 250 ml cultures of the host bacterium containing the pGeneH3 plasmid and isolated using a DNA preparation kit (Qiagen Midi-Prep) as per manufacturers guidelines (Qiagen). CHO K1 cells previously transfected with the pSwitch regulatory plasmid (InVitrogen) were seeded at 2×10e6 cells per T75 flask in Complete Medium, containing Hams F12 (GIBCOBRL, Life Technologies) medium supplemented with 10% v/v dialysed foetal bovine serum, L-glutamine, and hygromycin (100 μg ml^−1), 24 hours prior to use. Plasmid DNA was transfected into the cells using Lipofectamine plus according to the manufacturers guidelines (InVitrogen). 48 hours post transfection cells were placed into complete medium supplemented with 500 μg ml^−1 Zeocin™.
10-14 days post selection 10 nM Mifepristone (InVitrogen), was added to the culture medium to induce the expression of the receptor. 18 hours post induction cells were detached from the flask using ethylenediamine tetra-acetic acid (EDTA; 1:5000; InVitrogen), following several washes with phosphate buffered saline pH 7.4 and resuspended in Sorting Medium containing Minimum Essential Medium (MEM), without phenol red, and supplemented with Earles salts and 3% Foetal Clone II (Hyclone). Approximately 1×10e7 cells were examined for receptor expression by staining with a rabbit polyclonal antibody, 4a, raised against the N-terminal domain of the histamine H3 receptor, incubated on ice for 60 minutes, followed by two washes in sorting medium. Receptor bound antibody was detected by incubation of the cells for 60 minutes on ice with a goat anti rabbit antibody, conjugated with Alexa 488 fluorescence marker (Molecular Probes). Following two further washes with Sorting Medium, cells were filtered through a 50 μm Filcon™ (BD Biosciences) and then analysed on a FACS Vantage SE Flow Cytometer fitted with an Automatic Cell Deposition Unit. Control cells were non-induced cells treated in a similar manner. Positively stained cells were sorted as single cells into 96-well plates, containing Complete Medium containing 500 μg ml^−1 Zeocin™ and allowed to expand before reanalysis for receptor expression via antibody and ligand binding studies. One clone, 3H3, was selected for membrane preparation.
(ii) Membrane Preparation from Cultured Cells
All steps of the protocol are carried out at 4° C. and with pre-cooled reagents. The cell pellet is resuspended in 10 volumes of homogenisation buffer (50 mM N-2-hydroxyethylpiperazine-N′-2-ethanesulfonic acid (HEPES), 1 mM ethylenediamine tetra-acetic acid (EDTA), pH 7.4 with KOH, supplemented with 10e-6M leupeptin (acetyl-leucyl-leucyl-arginal; Sigma L2884), 25 μg/ml bacitracin (Sigma B0125), 1 mM phenylmethylsulfonyl fluoride (PMSF) and 2×10e-6M pepstain A (Sigma)). […]
In the case of `c1cc(-c2csnn2)ccc1Cc1ccc2c(c1)CCN(C1CCC1)CC2` [Example E57, 3-cyclobutyl-7-{[4-(1,2,3-thiadiazol-4-yl)phenyl]methyl}-2,3,4,5-tetrahydro-1H-3-benzazepine], the Ki was less than 0.316 nM. In the case of `Cc1noc(-c2cnc(Cc3ccc4c(c3)CCN(C3CCC3)CC4)cn2)n1` [Example E15, 3-Cyclobutyl-7-{[5-(3-methyl-1,2,4-oxadiazol-5-yl)-2-pyrazinyl]methyl}-2,3,4,5-tetrahydro-1H-3-benzazepine], the Ki is less than 3.16 nM.

For `O=C1CCCN1c1ccc(Cc2ccc3c(c2)CCN(C2CCC2)CC3)nc1` [Example E5, 1-{6-[(3-cyclobutyl-2,3,4,5-tetrahydro-1H-3-benzazepin-7-yl)methyl]-3-pyridinyl}-2-pyrrolidinone], the Ki was less than 3.16 nM. For the compound `c1cnc(Cc2ccc3c(c2)CCN(C2CCC2)CC3)cn1` [Example E30, 3-Cyclobutyl-7-(2-pyrazinylmethyl)-2,3,4,5-tetrahydro-1H-3-benzazepine], the Ki was less than 3.16 nM. As for `N#Cc1ccc(NC(=O)c2ccc(Cc3ccc4c(c3)CCN(C3CCC3)CC4)cn2)cc1` [Example E56, N-(4-cyanophenyl)-5-[(3-cyclobutyl-2,3,4,5-tetrahydro-1H-3-benzazepin-7-yl)methyl]-2-pyridinecarboxamide], the Ki is less than 3.16 nM. As for `O=C1CCCN1c1ccc(Cc2ccc3c(c2)CCN(C2CCC2)CC3)cc1` [Example E28, 1-{4-[(3-Cyclobutyl-2,3,4,5-tetrahydro-1H-3-benzazepin-7-yl)methyl]phenyl}-2-pyrrolidinone], the figure is less than 3.16 nM. As to `O=C(c1ccc(Cc2ccc3c(c2)CCN(C2CCC2)CC3)cn1)N1CCCC1` [Example E54, 3-cyclobutyl-7-{[6-(1-pyrrolidinylcarbonyl)-3-pyridinyl]methyl}-2,3,4,5-tetrahydro-1H-3-benzazepine], the Ki is less than 3.16 nM. For `N#Cc1ccc(Cc2ccc3c(c2)CCN(C2CCC2)CC3)nc1` [Example E41, 6-[(3-cyclobutyl-2,3,4,5-tetrahydro-1H-3-benzazepin-7-yl)methyl]-3-pyridinecarbonitrile], the Ki is less than 3.16 nM. Under `CN(C)C(=O)c1ccc(Cc2ccc3c(c2)CCN(C2CCC2)CC3)cc1` [Example E17, 4-[(3-Cyclobutyl-2,3,4,5-tetrahydro-1H-3-benzazepin-7-yl)methyl]-N,N-dimethylbenzamide] stands less than 3.16 nM; under `CC(C)NC(=O)c1ccc(Cc2ccc3c(c2)CCN(C2CCC2)CC3)cn1` [Example E53, 5-[(3-cyclobutyl-2,3,4,5-tetrahydro-1H-3-benzazepin-7-yl)methyl]-N-(1-methylethyl)-2-pyridinecarboxamide], less than 3.16 nM; under `O=C1CCCN1c1ccc(Cc2ccc3c(c2)CCN(C2CCC2)CC3)cn1` [Example E29, 1-{5-[(3-Cyclobutyl-2,3,4,5-tetrahydro-1H-3-benzazepin-7-yl)methyl]-2-pyridinyl}-2-pyrrolidinone], less than 3.16 nM. Under `NC(=O)c1ccc(Cc2ccc3c(c2)CCN(C2CCC2)CC3)cc1` [Example E46, 4-[(3-cyclobutyl-2,3,4,5-tetrahydro-1H-3-benzazepin-7-yl)methyl]benzamide] stands less than 0.316 nM. As for `NC(=O)c1ccc(Cc2ccc3c(c2)CCN(C2CCC2)CC3)cn1` [Example E27, 5-[(3-Cyclobutyl-2,3,4,5-tetrahydro-1H-3-benzazepin-7-yl)methyl]-2-pyridinecarboxamide], the figure is less than 3.16 nM; as for `O=C(NC1CCOCC1)c1ccc(Cc2ccc3c(c2)CCN(C2CCC2)CC3)cc1` [Example E50, 4-[(3-cyclobutyl-2,3,4,5-tetrahydro-1H-3-benzazepin-7-yl)methyl]-N-(tetrahydro-2H-pyran-4-yl)benzamide], less than 3.16 nM; as for `O=C(c1ccc(Cc2ccc3c(c2)CCN(C2CCC2)CC3)nc1)N1CCCC1` [Example E43, 3-cyclobutyl-7-{[5-(1-pyrrolidinylcarbonyl)-2-pyridinyl]methyl}-2,3,4,5-tetrahydro-1H-3-benzazepine], less than 3.16 nM. For `CN(C)C(=O)c1cnc(Cc2ccc3c(c2)CCN(C2CCC2)CC3)cn1` [Example E22, 5-[(3-Cyclobutyl-2,3,4,5-tetrahydro-1H-3-benzazepin-7-yl)methyl]-N,N-dimethyl-2-pyrazinecarboxamide], the Ki was less than 3.16 nM. Under `c1ncn(-c2ccc(Cc3ccc4c(c3)CCN(C3CCC3)CC4)cc2)n1` [Example E60, 3-cyclobutyl-7-{[4-(1H-1,2,4-triazol-1-yl)phenyl]methyl}-2,3,4,5-tetrahydro-1H-3-benzazepine] stands less than 0.316 nM; under `c1cnn(-c2ccc(Cc3ccc4c(c3)CCN(C3CCC3)CC4)cc2)c1` [Example E59, 3-cyclobutyl-7-{[4-(1H-pyrazol-1-yl)phenyl]methyl}-2,3,4,5-tetrahydro-1H-3-benzazepine], less than 0.316 nM. As for `CNC(=O)c1cnc(Cc2ccc3c(c2)CCN(C2CCCC2)CC3)cn1` [Example E35, 5-[(3-Cyclopentyl-2,3,4,5-tetrahydro-1H-3-benzazepin-7-yl)methyl]-N-methyl-2-pyrazinecarboxamide], the figure is less than 3.16 nM.

Values taken from patent US20070208005A1, “TETRAHYDROBENZAZEPINES AS ANTAGONISTS AND/OR REVERSE AGONISTS OF THE HISTAMINE H3 RECEPTOR” (priority 2004, published 2007).
